According to PMC4619332, “Targeting type-2 metabotropic glutamate receptors to protect vulnerable hippocampal neurons against ischemic damage” (Molecular Brain, 2015):

Biological target: T1, mGlu3 receptor (Homo sapiens, UniProt Q14832)
T1 construct: gene GRM3; recombinant receptor stably expressed in HEK293 cells
Experiment: FLIPR Ca2+ mobilization, antagonist mode at glutamate EC80
Type: cell-based
Description: FLIPR Ca2+ mobilization, antagonist mode [NT]

T1 sequence (Q14832 23-879): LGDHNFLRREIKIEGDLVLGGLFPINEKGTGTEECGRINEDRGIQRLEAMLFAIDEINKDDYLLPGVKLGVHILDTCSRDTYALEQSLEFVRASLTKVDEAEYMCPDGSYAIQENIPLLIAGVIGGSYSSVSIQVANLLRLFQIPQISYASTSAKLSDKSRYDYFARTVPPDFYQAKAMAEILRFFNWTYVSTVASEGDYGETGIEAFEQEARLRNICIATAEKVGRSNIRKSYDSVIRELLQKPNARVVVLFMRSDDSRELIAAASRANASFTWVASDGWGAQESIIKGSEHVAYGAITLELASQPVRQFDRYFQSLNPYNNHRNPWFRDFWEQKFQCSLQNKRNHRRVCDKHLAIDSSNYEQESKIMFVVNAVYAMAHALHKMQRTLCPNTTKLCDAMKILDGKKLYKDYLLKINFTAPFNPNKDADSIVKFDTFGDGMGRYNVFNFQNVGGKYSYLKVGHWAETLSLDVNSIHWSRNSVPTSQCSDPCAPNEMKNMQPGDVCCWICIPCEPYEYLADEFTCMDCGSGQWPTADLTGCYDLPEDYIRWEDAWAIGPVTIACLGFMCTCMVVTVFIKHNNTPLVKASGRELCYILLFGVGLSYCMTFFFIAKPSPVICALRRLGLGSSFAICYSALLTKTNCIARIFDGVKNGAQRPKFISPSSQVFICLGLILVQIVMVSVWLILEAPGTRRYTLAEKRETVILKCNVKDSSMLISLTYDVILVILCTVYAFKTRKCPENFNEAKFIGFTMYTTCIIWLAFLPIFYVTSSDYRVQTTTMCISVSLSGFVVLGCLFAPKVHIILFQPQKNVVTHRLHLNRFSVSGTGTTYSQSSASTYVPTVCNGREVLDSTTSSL

Work on ADX92639 yielded an IC50 of 17.4 µM.
